Reference: PMC7619001, “Structural Basis of Bifunctional CTP/dCTP Synthase” (Journal of molecular biology, 2024)
Blank lines part the entries; values can stand above or below the compound they belong to.

Columns and labels:
CTP synthase (CTPS) [1] = biological target: T1, CTP synthase (CTPS) (Drosophila melanogaster, UniProt Q9VUL1); assay: cryo-EM structure ([…] Å), reaction intermediate; assay type: binding
T1 construct: full-length, C-terminal 6xHis-tag
T1 sequence (Q9VUL1 1-627): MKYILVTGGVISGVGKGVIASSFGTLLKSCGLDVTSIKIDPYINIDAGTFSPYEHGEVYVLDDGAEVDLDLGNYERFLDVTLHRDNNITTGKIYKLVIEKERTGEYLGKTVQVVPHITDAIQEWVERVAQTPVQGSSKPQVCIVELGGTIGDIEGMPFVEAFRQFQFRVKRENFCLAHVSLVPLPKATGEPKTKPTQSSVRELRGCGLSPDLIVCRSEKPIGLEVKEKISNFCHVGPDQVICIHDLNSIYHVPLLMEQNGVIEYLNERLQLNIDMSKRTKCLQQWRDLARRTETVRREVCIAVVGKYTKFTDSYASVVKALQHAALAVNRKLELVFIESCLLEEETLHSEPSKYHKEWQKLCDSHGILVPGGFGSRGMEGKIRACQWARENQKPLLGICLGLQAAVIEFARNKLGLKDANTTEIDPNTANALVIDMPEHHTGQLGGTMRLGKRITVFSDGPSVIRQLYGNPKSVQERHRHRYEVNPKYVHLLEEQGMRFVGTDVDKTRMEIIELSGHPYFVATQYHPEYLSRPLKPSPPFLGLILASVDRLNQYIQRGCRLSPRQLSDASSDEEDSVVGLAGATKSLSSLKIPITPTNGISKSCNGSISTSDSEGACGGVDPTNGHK

CTP synthase (CTPS) [2] = biological target: T1, CTP synthase (CTPS); assay: enzyme kinetics at […] nm, Hill fit (KA […]); assay type: biochemical
CTP synthase (CTPS) [3] = biological target: T1, CTP synthase (CTPS); assay: cryo-EM structure ([…] Å); assay type: binding
CTP synthase (CTPS) [4] = biological target: T1, CTP synthase (CTPS); assay: activation kinetics (KA = dissociation constant of the E·GTP complex); assay type: biochemical
CTP synthase (CTPS) [5] = biological target: T1, CTP synthase (CTPS); assay: enzyme kinetics at […] nm, Hill fit (KA […]); assay type: biochemical; remark: listed apart in the source
CTP synthase (CTPS) [6] = biological target: T1, CTP synthase (CTPS); assay: enzyme kinetics at […] nm, Hill fit (KA […]); assay type: biochemical; remark: listed apart in the source
CTP synthase (CTPS) [7] = biological target: T1, CTP synthase (CTPS); assay: enzyme activity abolished at […]; filament formation by negative-stain EM; assay type: biochemical
CTP synthase (CTPS) [8] = biological target: T1, CTP synthase (CTPS); assay: cryo-EM structure; activation kinetics (KA = dissociation constant of the enzyme-regulator complex); assay type: biochemical
Source text: cryo-EM structure; activation kinetics (KA = dissociation constant of the enzyme-regulator complex) on CTP synthase (CTPS) | we observed a clear electron density of dGTP

CTP synthase (CTPS) [9] = biological target: T1, CTP synthase (CTPS); assay: enzyme kinetics at […] nm, Hill fit (KA […]); assay type: biochemical; remark: listed apart in the source

Compound: O=c1nc(OP(=O)(O)O)ccn1[C@H]1C[C@H](O)[C@@H](COP(=O)(O)OP(=O)(O)OP(=O)(O)O)O1 [4Pi-dUTP]
cryo-EM structure (2.7 Å), reaction intermediate (CTP synthase (CTPS) [1]): our electron density map shows that dUTP has been catalyzed by CTPS to 4Pi-dUTP and stabilized through various interactions

Compound: Nc1ncnc2c1ncn2[C@@H]1O[C@H](COP(=O)(O)OP(=O)(O)OP(=O)(O)O)[C@@H](O)[C@H]1O [ATP]
Kd (CTP synthase (CTPS) [2]): 60 µM

Compound: [N-]=[N+]=CC(=O)CC[C@H](N)C(=O)O [DON, 6-diazo-L-noreleucine]
cryo-EM structure (2.7 Å) (CTP synthase (CTPS) [3]): The electron density of the covalent inhibitor DON was observed in the binding pocket of the GAT domain

Kd (CTP synthase (CTPS) [4]): 51.2 µM
Compound: Nc1nc2c(ncn2[C@@H]2O[C@H](COP(=O)(O)OP(=O)(O)OP(=O)(O)O)[C@@H](O)[C@H]2O)c(=O)[nH]1 [GTP]

Kd (CTP synthase (CTPS) [5]): 50 ± 40 µM
Compound: O=c1ccn([C@@H]2O[C@H](COP(=O)(O)OP(=O)(O)OP(=O)(O)O)[C@@H](O)[C@H]2O)c(=O)[nH]1 [UTP]

cryo-EM structure (2.7 Å) (CTP synthase (CTPS) [3]): dATP has been converted to dADP by CTPS
Compound: Nc1ncnc2c1ncn2[C@H]1C[C@H](O)[C@@H](COP(=O)(O)OP(=O)(O)O)O1 [dADP]

Kd (CTP synthase (CTPS) [6]): 160 ± 80 µM
Compound: Nc1ncnc2c1ncn2[C@H]1C[C@H](O)[C@@H](COP(=O)(O)OP(=O)(O)OP(=O)(O)O)O1 [dATP]

Compound: Nc1ccn([C@H]2C[C@H](O)[C@@H](COP(=O)(O)OP(=O)(O)OP(=O)(O)O)O2)c(=O)n1 [dCTP]
enzyme activity abolished at 1 mM; filament formation by negative-stain EM (CTP synthase (CTPS) [7]): This indicates that both CTP and dCTP have strong inhibition effects on CTPS activity.

Kd (CTP synthase (CTPS) [8]): 523 ± 312 µM
Compound: Nc1nc2c(ncn2[C@H]2C[C@H](O)[C@@H](COP(=O)(O)OP(=O)(O)OP(=O)(O)O)O2)c(=O)[nH]1 [dGTP]

Kd (CTP synthase (CTPS) [9]): 280 ± 70 µM
Compound: O=c1ccn([C@H]2C[C@H](O)[C@@H](COP(=O)(O)OP(=O)(O)OP(=O)(O)O)O2)c(=O)[nH]1 [dUTP]
